Drawing on US20230141600A1, “IMIDAZOPYRAZINE DERIVATIVES” (priority 2020, published 2023), this text covers MIC and IC90 for eight molecules.

Structures can show the parent of a compound that is named as a salt. Where two headings read alike, the source gives them in different places.

Experiment [1] has as its system Acinetobacter baumannii ATCC 17978. The experiment is described as follows: Minimal inhibitory concentration (MIC) determination, broth microdilution (CLSI M07-A10). The experiment is classed as cell-based. As to the method: Minimal Inhibitory Concentration (MIC) and MIC90 Determination:
The MIC of antibacterial compounds against multiple species and strains was determined using the broth microdilution method according to M07-A10 Clinical and Laboratory Standards Institute (CLSI) guidelines (CLSI (2015) Methods for dilution antimicrobial susceptibility tests for bacteria that grow aerobically; Approved Standard, Tenth Edition. CLSI Document M7-A10 (ISBN 1-56238-987-4). Wayne, Pa.: Clinical and Laboratory Standards Institute, 19087, USA), using the appropriate broth medium. In short, the compound plates were prepared by dispensing 100 μl of each stock solution in the first well of a 96 well microtiter plate (MTP) at a concentration 100-fold higher than the final concentration desired in broth. Eleven serial 2-fold dilutions of the highest concentration were made in DMSO for new compounds and in water (or appropriate solution) for reference compounds (CLSI (2017) Performance Standards for Antimicrobial Susceptibility Testing; […] Informational Supplement. CLSI Document M100-S27, CLSI, Wayne, Pa. 19087, USA). 1 μL of each well was transferred in a new MTP, which served as the test plate by subsequent inoculation. This bacterial suspension was prepared from strains that were first sub-cultured on agar plates and incubated for 18-24 hours as appropriate. Following incubation, the inoculum was prepared from isolated colonies and adjusted to 0.5 McFarland turbidity standard (1 to 2×10^8 Colony Forming Units (CFU)/mL) in 0.9% saline. The bacterial suspension was then diluted 1:200 in appropriate sterile medium and within 15 minutes 100 μL/well were dispensed. Negative controls (lack of bacterial cells) and growth control wells (lack of compound) were included in all plates. MTPs were incubated for 18-24 hours at 35±2° C. in ambient air. The MIC value of each compound, expressed as μg/mL, was determined as the lowest concentration required for complete growth inhibition (no visible growth). MIC90 and MIC50 values were defined as the lowest concentration of the antibacterial compound at which 90% and 50% of the strains were inhibited.
Table 3 provides the MIC's of particular compounds of the present invention obtained against the strain Acinetobacter baumannii ATCC 17978, expressed as μg/mL.

Experiment [2] has as its system Acinetobacter baumannii ATCC17978. The experiment is described as follows: 90% growth inhibitory concentration (IC90) determination, antimicrobial susceptibility testing. In kind it is cell-based. The conditions noted are these: ATCC17978, 90% growth inhibition, Iso-Sensitest broth, OD 600 nm over 16 h, 35±2° C., read-out: ATCC 17978 IC90. Here is the method: Antimicrobial Susceptibility Testing:
90% Growth Inhibitory Concentration (IC90) Determination
The in vitro antimicrobial activity of the compounds was determined according to the following procedure:
The assay used a 10-points Iso-Sensitest broth medium to measure quantitatively the in vitro activity of the compounds against Acinetobacter baumannii ATCC17961 and ATCC17978.
Stock compounds in DMSO were serially twofold diluted (e.g. range from 50 to 0.097 μM final concentration) in 384 wells microtiter plates and inoculated with 49 μl the bacterial suspension in Iso-Sensitest medium to have a final cell concentration of ˜5×10^(5) CFU/ml in a final volume/well of 50 ul/well. Microtiter plates were incubated at 35±2° C.
Bacterial cell growth was determined with the measurement of optical density at λ=600 nm each minutes over a time course of 16 h. Growth inhibition was calculated during the logarithmic growth of the bacterial cells with determination of the concentration inhibiting 50% (IC50) and 90% (IC90) of the growth.
Table 1 provides the 90% growth inhibitory concentrations (IC90) in micromoles per liter of the compounds of present invention obtained against the strain Acinetobacter baumannii ATCC17978.

Where [3] appears, read: ATCC17978, lowest concentration for complete growth inhibition, 18-24 hours at 35±2° C., read-out: ATCC 17978 MIC.

By MIC is commonly meant the smallest concentration in the dilution series that meets the test's criterion for growth inhibition. Consider `CCc1cc(Nc2nccn3c(-c4ccc(OC(F)F)c(F)c4F)cnc23)ccc1C(=O)N1CCC(C(=O)N2C[C@@H]3C[C@H]2C[N+]3(C)CC2CNC2)CC1.O=C([O-])C(F)(F)F.O=CO` (mixture of isomers) [Example 100, [4-[[3-[4-(Difluoromethoxy)-2,3-difluoro-phenyl]imidazo[1,2-a]pyrazin-8-yl]amino]-2-ethyl-phenyl]-[4-[rac-(1S,4S)-5-(azetidin-3-ylmethyl)-5-methyl-2-aza-5-azoniabicyclo[2.2.1]heptane-2-carbonyl]-1-piperidyl]methanone; formic acid; 2,2,2-trifluoroacetate (Mixed Salt)], for which the minimum inhibitory concentration (MIC) in experiment [1] (setting [3]) amounted to 1.84 µg/mL.
On the same count and under the same terms, the result for `CCc1cc(Nc2nccn3c(-c4ccc(Oc5cnn(C)n5)c(F)c4F)cnc23)ccc1C(=O)NCC1CC[N+](C)(CC2CCNC2)CC1.O=C[O-]` (centres unmarked) [Example 6, 4-[[3-[2,3-difluoro-4-(2-methyltriazol-4-yl)oxy-phenyl]imidazo[1,2-a]pyrazin-8-yl]amino]-2-ethyl-N-[[1-methyl-1-(pyrrolidin-3-ylmethyl)piperidin-1-ium-4-yl]methyl]benzamide Formate] reads 8.57 µg/mL.
In general, IC90 refers to the concentration needed for an effect of 90%. Take `C[N+](C)(C)CC(=O)N1CCN(C(=O)c2ccc(Nc3nccn4c(-c5ccc(OCC#N)c(F)c5F)cnc34)cc2Cl)CC1` [Example 54, 2-(4-(2-Chloro-4-((3-(4-(cyanomethoxy)-2,3-difluorophenyl)imidazo[1,2-a]pyrazin-8-yl)amino)benzoyl)piperazin-1-yl)-N,N,N-trimethyl-2-oxoethan-1-aminium Formate]: in experiment [2], the IC90 worked out at 45.2 nM.
With `CCc1cc(Nc2nccn3c(-c4ccc(OC(F)F)c(F)c4F)cnc23)ccc1C(=O)N1CCC(C(=O)NCC2CC[N+](C)(CC3CNC3)C2)CC1.O=C([O-])C(F)(F)F.O=CO` (centres unmarked) [Example 98, N-[[1-(Azetidin-3-ylmethyl)-1-methyl-pyrrolidin-1-ium-3-yl]methyl]-1-[4-[[3-[4-(difluoromethoxy)-2,3-difluoro-phenyl]imidazo[1,2-a]pyrazin-8-yl]amino]-2-ethyl-benzoyl]piperidine-4-carboxamide formate/2,2,2-trifluoroacetate (Mixed Salt)], the MIC in experiment [1] (setting [3]) was found to be 0.92 µg/mL.
In the case of `CCc1cc(Nc2nccn3c(-c4ccc(OC(F)F)c(F)c4F)cnc23)ccc1C(=O)N1CCC(C(=O)N2CC3(C2)C[N+](C)(CC2CNC2)C3)CC1.O=C([O-])C(F)(F)F.O=CO` [Example 99, [4-[2-(azetidin-3-ylmethyl)-2-methyl-6-aza-2-azoniaspiro[3.3]-6-carbonyl]-1-piperidyl]-[4-[[3-[4-(difluoromethoxy)-2,3-difluoro-phenyl]imidazo[1,2-a]pyrazin-8-yl]amino]-2-ethyl-phenyl]methanone formic acid 2,2,2-trifluoroacetate (Mixed Salt)], the minimum inhibitory concentration (MIC) in experiment [1] (setting [3]) is 0.92 µg/mL.
For `CCc1cc(Nc2nccn3c(-c4ccc(OC(F)F)c(F)c4F)cnc23)ccc1C(=O)N1CCC(C(=O)N2CC3CC(C2)[N+]3(C)CC2CNC2)CC1.O=C(O)C(F)(F)F.O=C([O-])C(F)(F)F.O=CO` (centres unmarked) [Example 101, [4-[6-(Azetidin-3-ylmethyl)-6-methyl-3-aza-6-azoniabicyclo[3.1.1]heptane-3-carbonyl]-1-piperidyl]-[4-[[3-[4-(difluoromethoxy)-2,3-difluoro-phenyl]imidazo[1,2-a]pyrazin-8-yl]amino]-2-ethyl-phenyl]methanone formate 2,2,2-trifluoroacetate (Mixed Salt)], the minimal inhibitory concentration (MIC) in experiment [1] (ATCC17978, read-out: ATCC 17978 MIC) was 1.84 µg/mL.
For `CCc1cc(Nc2nccn3c(-c4ccc(OC(F)F)c(F)c4F)cnc23)ccc1C(=O)N[C@@H](C)CNC(=O)C1CC[N+](C)(CC2CNC2)CC1.O=C[O-]` (stereo partly drawn) [Example 114, 1-(Azetidin-3-ylmethyl)-N-[(2S)-2-[[4-[[3-[4-(difluoromethoxy)-2,3-difluoro-phenyl]imidazo[1,2-a]pyrazin-8-yl]amino]-2-ethyl-benzoyl]amino]propyl]-1-methyl-piperidin-1-ium-4-carboxamide Formate], in experiment [1] (setting [3]), the minimum inhibitory concentration (MIC) came to 17.8 µg/mL.
The same measure, in the same setting: the same measure for `CCc1cc(Nc2nccn3c(-c4ccc(OC)c(F)c4F)cnc23)ccc1C(=O)NCC[N+]1(C)CCC(C(N)=O)C1.O=C([O-])C(F)(F)F` (centres unmarked) [Example 144, 1-[2-[[4-[[3-(2,3-Difluoro-4-methoxy-phenyl)imidazo[1,2-a]pyrazin-8-yl]amino]-2-ethyl-benzoyl]amino]ethyl]-1-methyl-pyrrolidin-1-ium-3-carboxamide 2,2,2-trifluoroacetate]: 3.62 µg/mL.
